From US8758816B2, “Compositions comprising azelastine and methods of use thereof” (priority 2004, dated 2014)
“And” between values parts separate entries of the source, which are not always exact repeats. Identical values can stand only once. Counter-ions that a name gives are not always drawn.

Columns and labels:
[1] = tested on: patients with seasonal allergic rhinitis (SAR); assay: MP 428 study: adverse events, Safety Population; format: in vivo, human
Protocol: A two-week, randomized, double-blind study, which evaluated the effects of the co-administration of ASTELIN® (azelastine hydrochloride (HCl)) and FLONASE® (fluticasone propionate) compared to either product alone in patients with seasonal allergic rhinitis (SAR) was conducted during the 2006 Texas mountain cedar season. After a 5-day placebo lead-in period, 151 patients with moderate-to-severe allergic rhinitis symptoms were randomized to either: (1) (49 total patients) ASTELIN® (azelastine hydrochloride (HCl)) plus placebo saline nasal spray 2 sprays per nostril, 15 minutes apart, twice daily (AM & PM); (2) (50 total patients) FLONASE® (fluticasone propionate) plus placebo saline nasal spray, 2 sprays per nostril, 15 minutes apart, once daily (AM) and two sessions of placebo saline nasal spray, 2 sprays per nostril, 15 minutes apart (PM); or (3) (52 total patients) the co-administration of ASTELIN® (azelastine hydrochloride (HCl)) 2 sprays per nostril plus FLONASE® (fluticasone propionate) 2 sprays per nostril (AM), 15 minutes apart, and ASTELIN® (azelastine hydrochloride (HCl)) 2 sprays per nostril plus placebo saline nasal spray, 15 minutes apart, (PM) for a 2-week double-blind treatment period.
The most common adverse events (AEs) were bitter taste (8.2% in ASTELIN® (azelastine hydrochloride (HCl)) group, 2.0% in FLONASE® (fluticasone propionate) group, 13.5% in co-administration group) and headache (4.1% in ASTELIN® (azelastine hydrochloride (HCl)) group, 4.0% in FLONASE® (fluticasone propionate) group, 5.8% in co-administration group). No other AE was reported by more than one patient in any treatment group. There were no discontinuations due to AEs.

[2] = tested on: patients with seasonal allergic rhinitis (SAR); assay: MP 428 study: Adult Rhinoconjunctivitis Quality of Life Questionnaire outcomes, change from baseline; format: in vivo, human; settings: Day 14/ET; Intent-to-Treat Population

In the case of `CN1CCCC(n2nc(Cc3ccc(Cl)cc3)c3ccccc3c2=O)CC1` (racemic) [Azelastine, (±)-1-(2H)-phthalazinone, 4-[(4-chlorophenyl)methyl]-2-(hexahydro-1-methyl-1H-azepin-4-yl)-, mono-hydrochloride], the “Treatment-Emergent AE: NASAL DISCOMFORT” value ([1]; max severity Mild) is reported as 0 (0.0) No. of Patients (%), the “Treatment-Emergent AE: NECK PAIN” value ([1]; max severity Mild) is reported as 1 (2.0) No. of Patients (%) and the “Treatment-Emergent AE: NERVOUS SYSTEM DISORDERS, Any Preferred Term” value ([1]; max severity Mild) is reported as 1 (2.0) No. of Patients (%). For the same compound, the “Treatment-Emergent AE: PHARYNGOLARYNGEAL PAIN” value ([1]; max severity Mild) was 0 (0.0) No. of Patients (%), the “Treatment-Emergent AE: RESPIRATORY, THORACIC AND MEDIASTINAL DISORDERS, Any Preferred Term” value (from here on “Treatment-Emergent AE: RESPIRATORY”) ([1]; max severity Mild) was 0 (0.0) No. of Patients (%) and the “Treatment-Emergent AE: STOMACH DISCOMFORT” value ([1]; max severity Mild) was 0 (0.0) No. of Patients (%). The “Treatment-Emergent AE: Any Adverse Event” value ([1]; max severity Mild, mono-hydrochloride) was 3 (6.1) No. of Patients (%) and 3 (0.1) No. of Patients (%), the “Treatment-Emergent AE: Any Adverse Event” value ([1]; max severity Moderate) was 2 (4.1) No. of Patients (%) and the “Treatment-Emergent AE: DRY MOUTH” value ([1]; max severity Moderate) was 0 (0.0) No. of Patients (%). For the same compound, the “Treatment-Emergent AE: DYSGEUSIA” value ([1]; max severity Moderate) was 0 (0.0) No. of Patients (%), the “Treatment-Emergent AE: EAR AND LABYRINTH DISORDERS, Any Preferred Term” value ([1]; max severity Moderate) was 1 (2.0) No. of Patients (%) and the “Treatment-Emergent AE: EAR PAIN” value ([1]; max severity Moderate) was 1 (2.0) No. of Patients (%). For the same compound, the “Treatment-Emergent AE: EPISTAXIS” value ([1]; max severity Moderate) was 0 (0.0) No. of Patients (%), the “Treatment-Emergent AE: GASTROINTESTINAL DISORDERS, Any Preferred Term” value ([1]; max severity Moderate) was 0 (0.0) No. of Patients (%) and the “Treatment-Emergent AE: HEADACHE” value ([1]; max severity Moderate) was 1 (2.0) No. of Patients (%). For the same compound, the “Treatment-Emergent AE: MUSCULOSKELETAL AND CONNECTIVE TISSUE DISORDERS, Any Preferred Term” value ([1]; max severity Moderate) was 0 (0.0) No. of Patients (%), the “Treatment-Emergent AE: MYALGIA” value ([1]; max severity Moderate) was 0 (0.0) No. of Patients (%) and the “Treatment-Emergent AE: NASAL DISCOMFORT” value ([1]; max severity Moderate) was 0 (0.0) No. of Patients (%). The “Treatment-Emergent AE: NECK PAIN” value ([1]; max severity Moderate) was 0 (0.0) No. of Patients (%), the “Treatment-Emergent AE: NERVOUS SYSTEM DISORDERS, Any Preferred Term” value ([1]; max severity Moderate) was 1 (2.0) No. of Patients (%) and the “Treatment-Emergent AE: PHARYNGOLARYNGEAL PAIN” value ([1]; max severity Moderate) was 1 (2.0) No. of Patients (%). For the same compound, the “Treatment-Emergent AE: RESPIRATORY” value ([1]; max severity Moderate) was 1 (2.0) No. of Patients (%), the “Treatment-Emergent AE: STOMACH DISCOMFORT” value ([1]; max severity Moderate) was 0 (0.0) No. of Patients (%) and the “Treatment-Emergent AE: Any Adverse Event” value ([1]; max severity Severe) was 3 (6.1) No. of Patients (%). For the same compound, the “Treatment-Emergent AE: DRY MOUTH” value ([1]; max severity Severe) was 0 (0.0) No. of Patients (%), the “Treatment-Emergent AE: DYSGEUSIA” value ([1]; max severity Severe) was 3 (6.1) No. of Patients (%) and the “Treatment-Emergent AE: EAR AND LABYRINTH DISORDERS, Any Preferred Term” value ([1]; max severity Severe) was 0 (0.0) No. of Patients (%). The “Treatment-Emergent AE: EAR PAIN” value ([1]; max severity Severe) was 0 (0.0) No. of Patients (%), the “Treatment-Emergent AE: EPISTAXIS” value ([1]; max severity Severe) was 0 (0.0) No. of Patients (%) and the “Treatment-Emergent AE: GASTROINTESTINAL DISORDERS, Any Preferred Term” value ([1]; max severity Severe) was 3 (6.1) No. of Patients (%). For the same compound, the “Treatment-Emergent AE: HEADACHE” value ([1]; max severity Severe) was 0 (0.0) No. of Patients (%), the “Treatment-Emergent AE: MUSCULOSKELETAL AND CONNECTIVE TISSUE DISORDERS, Any Preferred Term” value ([1]; max severity Severe) was 0 (0.0) No. of Patients (%) and the “Treatment-Emergent AE: MYALGIA” value ([1]; max severity Severe) was 0 (0.0) No. of Patients (%). The “Treatment-Emergent AE: NASAL DISCOMFORT” value ([1]; max severity Severe) was 0 (0.0) No. of Patients (%), the “Treatment-Emergent AE: NECK PAIN” value ([1]; max severity Severe) was 0 (0.0) No. of Patients (%) and the “Treatment-Emergent AE: NERVOUS SYSTEM DISORDERS, Any Preferred Term” value ([1]; max severity Severe) was 0 (0.0) No. of Patients (%). For the same compound, the “Treatment-Emergent AE: PHARYNGOLARYNGEAL PAIN” value ([1]; max severity Severe) was 0 (0.0) No. of Patients (%), the “Treatment-Emergent AE: RESPIRATORY” value ([1]; max severity Severe) was 0 (0.0) No. of Patients (%) and the “Treatment-Emergent AE: STOMACH DISCOMFORT” value ([1]; max severity Severe) was 0 (0.0) No. of Patients (%). For the same compound, the “adverse event: bitter taste” value ([1]; share of treatment group) was 8.2%, the “adverse event: headache” value ([1]; share of treatment group) was 4.1% and the “RQLQ Change From Baseline in Activity, LS Mean” value [2] was −1.37. For the same compound, the “RQLQ Change From Baseline in Activity, Mean” value [2] was −1.25, the “RQLQ Change From Baseline in Activity, Median” value [2] was −1.00 and the “RQLQ Change From Baseline in Emotional, LS Mean” value [2] was −1.26. For the same compound, the “RQLQ Change From Baseline in Emotional, Mean” value [2] was −1.13, the “RQLQ Change From Baseline in Emotional, Median” value [2] was −1.00 and the “RQLQ Change From Baseline in Eye Symptoms, LS Mean” value [2] was −1.64. For the same compound, the “RQLQ Change From Baseline in Eye Symptoms, Mean” value [2] was −1.49, the “RQLQ Change From Baseline in Eye Symptoms, Median” value [2] was −1.25 and the “RQLQ Change From Baseline in Nasal Symptoms, LS Mean” value [2] was −1.46. The “RQLQ Change From Baseline in Nasal Symptoms, Mean” value [2] was −1.31, the “RQLQ Change From Baseline in Nasal Symptoms, Median” value [2] was −1.25 and the “RQLQ Change From Baseline in Non-nose/eye Symptoms, LS Mean” value [2] was −0.88. For the same compound, the “RQLQ Change From Baseline in Non-nose/eye Symptoms, Mean” value [2] was −0.82, the “RQLQ Change From Baseline in Non-nose/eye Symptoms, Median” value [2] was −0.86 and the “RQLQ Change From Baseline in Overall Score, LS Mean” value [2] was −1.21. The “RQLQ Change From Baseline in Overall Score, Mean” value [2] was −1.11, the “RQLQ Change From Baseline in Overall Score, Median” value [2] was −1.13 and the “RQLQ Change From Baseline in Practical Problems, LS Mean” value [2] was −1.59. The “RQLQ Change From Baseline in Practical Problems, Mean” value [2] was −1.50, the “RQLQ Change From Baseline in Practical Problems, Median” value [2] was −1.33 and the “RQLQ Change From Baseline in Sleep, LS Mean” value [2] was −1.23. The “RQLQ Change From Baseline in Sleep, Mean” value [2] was −1.02 and the “RQLQ Change From Baseline in Sleep, Median” value [2] was −1.00.
